Test results taken from patent US20250197343A1, “CATIONIC LIPID” (TAKEDA PHARMACEUTICAL COMPANY LIMITED, priority 2021, published 2025).
Like-named read-outs stand apart in the source and are kept apart here.

Legend:
[1] = Particle size of Luc DNA-encapsulated lipid nanoparticles; assay type: physicochemical; conditions: cationic lipid:DPPC:cholesterol:GM-020=60:10.6:28:1.4 molar ratio
Outline: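 LNPs of cationic lipid:DPPC:cholesterol:GM-020 (60:10.6:28:1.4 molar) encapsulating luciferase DNA, made by microfluidic mixing with DNA in 10 mM MES pH 5.5, dialysed into PBS, stored in 20% sucrose/PBS at −80 °C. Size by dynamic light scattering, reported as cumulant Z-average.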

[2] = Rate of encapsulation of Luc DNA in lipid nanoparticles; assay type: physicochemical; set-up: unit: %; conditions: Luc DNA-encapsulated lipid nanoparticles; cationic lipid:DPPC:cholesterol:GM-020=60:10.6:28:1.4 molar ratio
Outline: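 Luc DNA-LNPs (cationic lipid:DPPC:cholesterol:GM-020 = 60:10.6:28:1.4 molar) formed by microfluidic mixing with DNA in 10 mM MES pH 5.5, then dialyzed into PBS. RiboGreen fluorescence measured with and without Triton X-100; encapsulation rate is the encapsulated fraction of total nucleic acid.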

[3] = tested on: ICrl:CD1 (ICR) mice; experiment: Mouse bioluminescence imaging evaluation (Test Example 1); assay type: in vivo; conditions: Luc DNA-encapsulated lipid nanoparticles 10 mL/kg i.v. to ICR mice; IVIS total flux 15 minutes after luciferin i.p.
Outline: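 ICR mice received Luc DNA-encapsulated lipid nanoparticles i.v. (10 mL/kg), then luciferin 15 mg/mL i.p. (10 mL/kg). Ventral IVIS imaging under isoflurane 15 min after luciferin; total flux scored A (≥3.0E+07), B (1.0E+07 to <3.0E+07), C (<1.0E+07).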

[4] = tested on: Huh-7 cells; experiment: Evaluation of viability using Huh-7 cells (Test Example 2); assay type: cell-based
Procedure: Huh-7 cells were seeded in a 96-well plate, and PBS, the Luc DNA-encapsulated lipid nanoparticles obtained in the aforesaid Production Example by using the cationic lipids of the Examples shown in Table 3, or Luc DNA-encapsulated lipid nanoparticles for control which were obtained in the same manner as in the aforesaid Production Example except that a known lipid, MC3 (DLin-MC3-DMA) or ALC-0315, was used instead of the cationic lipids of the Examples were added thereto (final concentration: 0.1 μg/mL and 0.3 μg/mL), followed by evaluation of viability (CellTiter-Fluor Cell Viability Assay, Promega Corporation). Taking the viability of dead cell group as 0% and the viability of the PBS group as 100%, the viability of each of the lipid particle groups was calculated. Higher viability indicates higher safety of the lipid particles. When the cationic lipids of the Examples were used, an improvement in safety compared to the control groups of MC3 and ALC-0315 was observed.

[5] = Huh-7 cells, Luc DNA-encapsulated lipid nanoparticles, final concentration 0.1 μg/mL, PBS group = 100%, dead cell group = 0%
[6] = Huh-7 cells, Luc DNA-encapsulated lipid nanoparticles, final concentration 0.3 μg/mL, PBS group = 100%, dead cell group = 0%

SMILES | Particle size (nm) [1] [nm] | Rate of encapsulation [2] | Luminescence [3] | Viability 0.1 μg/ml (%) [4] [%] | Viability 0.3 μg/ml (%) [4] [%] | Viability 0.1 μg/ml (%) [4, 5] [%] | Viability 0.3 μg/ml (%) [4, 6] [%]
CCCCCC(CCCCC)OC(=O)CCC(=O)OCC(COC(=O)CCCN(C)C)(COC(=O)CCC(=O)OC(CCCCC)CCCCC)COC(=O)CCC(=O)OC(CCCCC)CCCCC [Example 39, 1,1′-{2-({[4-(Dimethylamino)butanoyl]oxy}methyl)-2-[({4-oxo-4-[(undecan-6-yl)oxy]butanoyl}oxy)methyl]propane-1,3-diyl} 4,4′-diundecan-6-yl dibutanedioate] | 135.2 | 98.5 | B (B represents luminescence of 1.0E+0.7 or more and less than 3.0E+07) | 113 | 94 |  | 
CCCCCCCCCOC(=O)CCCCC(=O)OCC(COC(=O)CCCCC(=O)OCCCCCCCCC)(COC(=O)CCCCC(=O)OCCCCCCCCC)COC(=O)CCCN(C)C [Example 41, 1,1′-[2-({[4-(Dimethylamino)butanoyl]oxy}methyl)-2-({[6-(nonyloxy)-6-oxohexanoyl]oxy}methyl)propane-1,3-diyl] 6,6′-dinonyl dihexanedioate] | 138.0 | 80.3 | B (B represents luminescence of 1.0E+0.7 or more and less than 3.0E+07) |  |  | 111 | 101
CCCCCCCCCCOC(=O)CCCCC(=O)OCC(COC(=O)CCCCC(=O)OCCCCCCCCCC)(COC(=O)CCCN(C)C)COC(=O)CC(CCCCC)CCCCC [Example 45, 1,1′-Didecyl 6,6′-[2-({[4-(dimethylamino)butanoyl]oxy}methyl)-2-{[(3-pentyloctanoyl)oxy]methyl}propane-1,3-diyl] dihexanedioate] | 119.0 | 95.6 | A (A represents luminescence of 3.0E+07 or more) |  |  | 108 | 103
CCCCCCCCCCOC(=O)CCCCC(=O)OCC(COC(=O)CCCN(C)C)(COC(=O)CC(CCCCC)CCCCC)COC(=O)CC(CCCCC)CCCCC [Example 51, Decyl 2-({[4-(dimethylamino)butanoyl]oxy}methyl)-3-[(3-pentyloctanoyl)oxy]-2-{[(3-pentyloctanoyl)oxy]methyl}propyl hexanedioate] | 83.9 | 98.2 | B (B represents luminescence of 1.0E+0.7 or more and less than 3.0E+07) |  |  | 104 | 78
CCCCCCCOC(=O)CCCCC(=O)OCC(COC(=O)CCCCC(=O)OCCCCCCC)(COC(=O)CCCN(C)CCO)COC(=O)CC(CCCCC)CCCCC [Example 93, 1,1′-Diheptyl 6,6′-(2-[({4-[(2-hydroxyethyl)(methyl)amino]butanoyl}oxy)methyl]-2-{[(3-pentyloctanoyl)oxy]methyl}propane-1,3-diyl) dihexanedioate] | 145.6 | 94.8 | B (B represents luminescence of 1.0E+0.7 or more and less than 3.0E+07) |  |  | 105 | 101
CCCCCC(CCCCC)CC(=O)OCC(COC(=O)CCCCC(=O)OCC(CCC)CCC)(COC(=O)CCCCC(=O)OCC(CCC)CCC)COC(=O)CCCN(C)C [Example 115, 1,1′-[2-({[4-(Dimethylamino)butanoyl]oxy}methyl)-2-{[(3-pentyloctanoyl)oxy]methyl}propane-1,3-diyl] 6,6′-bis(2-propylpentyl) dihexanedioate] | 109.6 | 95.7 | A (A represents luminescence of 3.0E+07 or more) |  |  | 110 | 100
CCCCCCCCC(C(=O)OC)C(=O)OCC(COC(=O)CCCN(C)C)(COC(=O)CC(CCCCC)CCCCC)COC(=O)C(CCCCCCCC)C(=O)OC (centres unmarked) [Example 132, 1,1′-[2-({[4-(Dimethylamino)butanoyl]oxy}methyl)-2-{[(3-pentyloctanoyl)oxy]methyl}propane-1,3-diyl] 3,3′-dimethyl bis(octylpropanedioate)] | 129.2 | 96.5 | A (A represents luminescence of 3.0E+07 or more) |  |  | 95 | 94
